Patent US4562292A, “Trifluoromethylketone sulfides and reversible enzyme inhibition therewith” (priority 1983, dated 1985)
Entries after “also recorded” stand apart in the source; their conditions may differ.

What was measured:
T. ni JHE [1] = assay: in vivo inhibition of T. ni JHE after topical application; parameters: species or system Trichoplusia ni
Procedure: (§1) Larvae were treated on the dorsum of the thorax with 1 or 2μ liters of ethanol (control) and with 1 or 2μ liters, respectively, of 10^-1 M TFT, TFPOS, DTFT or EPPAT in ethanol, 3 times per day at 4, 12 and 17 h ALO (after lights on) on L5Dl and D2. Time of pupation was checked daily at 4 h ALO, and emergence was checked 2 weeks after treatment. L5Dl larvae 4 h ALO were also treated, but only once with 1μ liter ethanol or with 1μ liter of 10-1 M TFT, TFPOS, or EPPAT in ethanol, and then were bled at 1, 8, 12, 23, 28, or 32 h after treatment. Hemolymph was collected from five larvae, mixed and frozen at -60° C. until assayed for JHE and α-NAE activity. […] Death usually occured during the larval-pupal transformation, with the control mortality at 2μ liters of ethanol being 1%, TFT at 0.2M being 6%, an TFPOS being 4%.
In another study, the in vivo inhibition of T. ni JHE following a single dose (0.1μ moles/larve) of EPPAT and TFPOS respectively was monitored. Maximum inhibition of T. ni JHE was obtained one hour after topical application for each.

JH esterase = conditions: crude juvenile hormone esterase from the cabbage looper; cited from earlier work
T. ni JHE [2] = assay: removal of inhibitor by dialysis (reversibility of inhibition); type: biochemical, Trichoplusia ni; conditions: for enzyme activity after dialysis: 48 hours after starting the dialysis
T. ni larvae [3] = conditions: cited from earlier work
T. ni larvae [4] = assay: topical treatment of T. ni larvae, time of pupation; type: in vivo, Trichoplusia ni; conditions: 0.1 and 0.2μ mole per application, 3 times per day, L5D1 and D2, topical
Procedure: (§2) T. ni larvae are treated with 1 or 2μ liters of ethanol, with TFPOS, wit o-ethyl-S-phenyl phosphoramidothiolate (EPPAT), or with 1,1,1-trifluorotetradecan-2-one (TFT) in 1×10^-1 M ethanol solutions on the dorsum of the thorax three times per day (4, 12 and 17 hr after lights on) during the first two days of the last larval stadium. The insects were held under standard rearing conditions (27° C., 14 hr light, 10 hr dark). The time of pupation was checked daily at 4 hr after lights on and the pupae were checked for successful emergence two weeks later.
as §1

[5] = target: T1, human brain neurotoxic esterase (Homo sapiens, UniProt Q8IY17); assay: blocking of mepafox inhibition of neurotoxic esterase; type: biochemical; conditions: relative to the other compounds
T1 construct: from tissue; host or cells: human brain
T1 sequence (Q8IY17 1-1375): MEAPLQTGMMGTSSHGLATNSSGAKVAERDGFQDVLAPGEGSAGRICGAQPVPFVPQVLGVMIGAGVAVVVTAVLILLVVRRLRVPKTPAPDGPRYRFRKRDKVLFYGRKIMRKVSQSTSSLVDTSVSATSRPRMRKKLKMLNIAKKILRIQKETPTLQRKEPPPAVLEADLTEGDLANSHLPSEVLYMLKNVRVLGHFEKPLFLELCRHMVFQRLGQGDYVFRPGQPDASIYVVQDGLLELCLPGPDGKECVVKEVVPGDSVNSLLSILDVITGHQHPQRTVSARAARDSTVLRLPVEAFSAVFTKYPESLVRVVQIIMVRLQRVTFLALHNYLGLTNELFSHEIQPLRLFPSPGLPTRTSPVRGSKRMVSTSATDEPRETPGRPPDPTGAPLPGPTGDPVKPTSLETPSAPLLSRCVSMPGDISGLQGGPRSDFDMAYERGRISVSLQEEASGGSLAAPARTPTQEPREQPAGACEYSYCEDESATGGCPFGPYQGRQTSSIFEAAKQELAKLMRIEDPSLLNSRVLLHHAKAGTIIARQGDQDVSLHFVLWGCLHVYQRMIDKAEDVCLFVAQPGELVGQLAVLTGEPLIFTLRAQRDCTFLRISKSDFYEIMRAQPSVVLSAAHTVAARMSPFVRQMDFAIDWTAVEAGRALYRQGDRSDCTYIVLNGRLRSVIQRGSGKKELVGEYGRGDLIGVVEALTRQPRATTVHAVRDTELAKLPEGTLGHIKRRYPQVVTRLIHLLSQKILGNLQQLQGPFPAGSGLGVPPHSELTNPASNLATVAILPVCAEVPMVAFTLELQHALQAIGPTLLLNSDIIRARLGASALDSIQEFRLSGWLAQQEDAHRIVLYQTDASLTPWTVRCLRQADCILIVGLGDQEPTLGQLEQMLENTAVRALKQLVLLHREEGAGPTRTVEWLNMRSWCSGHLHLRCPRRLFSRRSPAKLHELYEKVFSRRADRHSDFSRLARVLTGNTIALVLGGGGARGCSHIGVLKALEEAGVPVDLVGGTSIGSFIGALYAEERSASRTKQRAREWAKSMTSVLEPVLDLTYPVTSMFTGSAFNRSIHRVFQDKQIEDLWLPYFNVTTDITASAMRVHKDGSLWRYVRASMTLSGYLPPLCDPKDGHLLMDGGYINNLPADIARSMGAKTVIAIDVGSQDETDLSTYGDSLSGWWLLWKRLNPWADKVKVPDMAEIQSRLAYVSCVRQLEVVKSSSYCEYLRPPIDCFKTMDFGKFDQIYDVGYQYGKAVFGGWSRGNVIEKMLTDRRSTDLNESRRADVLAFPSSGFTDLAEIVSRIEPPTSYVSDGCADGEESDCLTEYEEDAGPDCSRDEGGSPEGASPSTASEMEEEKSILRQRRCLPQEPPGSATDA
Text: The data in Table III were generated by determining what concentration of the various novel compounds were needed to block the inhibition of human brain neurotoxic esterase by a high concentration of mepafox.

T. ni larvae [6] = assay: mortality of T. ni larvae after repeated topical applications; type: in vivo, Trichoplusia ni
Procedure: as §2, §1

Row | Structure (SMILES) | persistence of in vivo inhibition (T. ni JHE [1]; compared with TFPOS and DTFT) | time of maximum inhibition of T. ni JHE after topical application (T. ni JHE [1]; single dose 0.1μ moles/larve) | in vitro inhibition of juvenile hormone esterase (literature) (JH esterase) | enzyme activity after dialysis (T. ni JHE [2]) | type of inhibition of T. ni JHE (T. ni JHE [2]; dialysis) | in vivo activity, topical application to cabbage looper (literature) (T. ni larvae [3]) | delay of pupation versus ethanol controls (T. ni larvae [4]) | potency in blocking neurotoxic esterase [5] | mortality at 0.2 µmol/application (T. ni larvae [6]; Trichoplusia, topical, repeated applications of 2μ liters (0.2 moles/application), Example VIII) | mortality (T. ni larvae [6]; repeated 1μ liter applications of 1×10^-1 M solution) | t0.5 of reactivation (T. ni JHE [2]; dialysis)
1 | CCOP(N)(=O)Sc1ccccc1 (stereo not shown) [EPPAT, O-ethyl-S-phenyl phosphoramidothiolate, reference compound] | more persistent | one | potent in vitro inhibition of juvenile hormone esterase | almost complete loss of enzyme activity | irreversible inhibitor | disrupt development of the cabbage looper | delayed preparation at both doses; also recorded: pupation was delayed with respect to the controls in a dose-dependent manner |  |  |  | 
2 | O=C(CSc1ccc(Oc2ccc(SCC(=O)C(F)(F)F)cc2)cc1)C(F)(F)F [Compound 35] |  |  |  |  |  |  |  | most potent to date |  |  | 
3 | CCCCCCCCCCCCC(=O)C(F)(F)F [TFT, 1,1,1-trifluorotetradecan-2-one, reference compound] |  |  | relatively greater juvenile hormone esterase activity in vitro than EPPAT | restored gradually to the same activity as in the uninhibited enzyme | reversible inhibitors | lack of pronounced in vivo activity | neither dose of TFT resulted in a delay in pupation; also recorded: no difference in the time of pupation; also recorded: no such in vivo effect |  | 6% | No mortality | more than 20 hours
